According to patent US11124847B1, “Systems and methods for assessing perturbations in cellular differentiation using reporter cell lines” (priority 2017, dated 2021):

Tested on: hNPC
Test: Immunofluorescence staining and high-content cell analysis of differentiation markers in hNPCs differentiated after 24 hour neurotoxin treatment
Type: cell-based, human
Conditions: for level of GFAP (glial marker): hNPC treated 24 hours
Excerpt: In an example, high-content cell analysis from cells grown in each well in a 96-well plate was sufficient to detect multiple markers via antibody staining and to be normalized to the DAPI signal, a common baseline measure of DNA content. […] In this example, hNPC are indicated by NESTIN (NES) and SRY-Box 2 (SOX2). Glial Fibrillary Acidic Protein (GFAP) is used as a marker of glial cells (both astrocytes and radial glia), and the neuron-specific class III β-tubulin (TUJ1) is used to indicate neurons. Expression of both GFAP and TUJ1 increased at 21 days and 50 days following differentiation, while both SOX2 and NES decreased at 21 days. Levels of SOX2 expression returned to baseline following 50 days.
A broad range of doses for each toxin was selected to determine the dose response and capture the full range to which a developing human brain may be exposed. Cultured hNPC's were treated for 24 hours to avoid complications associated with non-specific toxicity that may occur with chronic treatment, and because we were interested in whether early, acute exposure produces long-term effects detectable in our assay.

CC(C)(c1ccc(O)cc1)c1ccc(O)cc1 [BPA, bisphenol A]
level of GFAP (glial marker) (21D time point, low to moderate doses): increase
level of GFAP (glial marker) (50D time point, low to moderate doses): increase

C[N+]([O-])=NCO [MAM, methylazoxymethanol]
level of GFAP (glial marker) (21D time point, increasing doses, vs DMSO control): striking increase
level of GFAP (glial marker) (50D time point, vs DMSO control): general decrease
hNPC markers (NESTIN and SOX2) (24 hours, across doses): clear dose-dependent increase
hNPC-GLIA population (markers of hNPC and glial cells) (21 days, across increasing doses): significant increase
neuronal population (NEURON) (21 days, as a function of increasing dose): striking decrease
hNPC-GLIA population (markers of hNPC and glial cells) (50 days): decreased
neuronal population (NEURON) (50 days): increased

CCCC(CCC)C(=O)O [VPA, valproic acid]
level of GFAP (glial marker) (across differentiation time points, compared with MAM and BPA): more modest effects
